Data from patent US11478489B2, “Selective accretion of cytoprotectant in radiation-sensitive tissues and uses thereof” (WILLIAM MARSH RICE UNIVERSITY, priority 2017, dated 2022).
Read-outs that look alike come from different tables or passages of the source.

Columns and labels:
[1] = Tolerability: body weight and food consumption as a model of nausea; assay type: in vivo, C57BL/6JLaw mice
Experimental: (§1) WR-2721 Trihydrate (Toronto Research Chemicals Inc; North York, Ontario, Canada) was diluted in PBS (with 0.2 conversion factor to adjust for trihydrate) and was administered by IP injection at 25 or 250 or 500 mg/kg or by oral gavage at doses […] 150 to 1000 mg/kg in a volume of 0.1 ml.
Severe nausea is a common and worrisome side effect of systemic WR-2721, and the concern that oral administration of the drug might exacerbate this side effect was examined. […] Thus, body weight and food consumption was closely monitored as a model of nausea in mice. Based on the results of the microcolony assay (FIG. 1), 500 mg/kg were used as the dose for toxicity testing. Mice were treated daily for 5 consecutive days with vehicle or WR-2721 administered IP or Per os (PO), and body weight and food consumption were monitored daily (FIGS. 2A and 2B, respectively). There was only one vehicle control group that was subjected to both gavage and intraperitoneal injections to more stringently control for the stress of drug administration from either IP or PO route. Despite this intensive intervention, the vehicle control animals maintained their initial bodyweight and food consumption throughout the study (FIGS. 2A and 2B).

[2] = mouse, in vivo, 25 min
Experimental: Next, the specificity of WR-1065 enrichment in intestines was determined in a genetically engineered mouse model. Kras^LSL/+; Trp53^FL/+; Ptfla^Cre/+ (KPC) mice that develop spontaneous pancreatic cancer were bred, and then backcrossed to a C57BL/6 background over 10 generations to eliminate the confounding issue of genetic variance from […] mice. These autochthonous tumors are thought to recapitulate the desmoplasia observed in human tumors that may make these tumors more aggressive. To be an effective an effective clinical radioprotectant, WR-1065 should not accumulate in tumors. Thus, plasma, liver, duodenum, jejunum and pancreatic tumors were collected 25 min after oral administration of 500 mg/kg (HED=41 mg/kg), or IP administration of 250 mg/kg WR-2721 (HED=20 mg/kg) to determine the concentrations of the WR-1065 (see schema in FIG. 4D).

[3] = tested on: C57BL/6 mice given lethal fractionated radiation; assay: Survival study after fractionated SBRT to the upper abdomen; assay type: in vivo, C57BL/6JLaw mice; conditions: oral 500 mg/kg 25 min prior to each of 5 daily fractions of 12.5 Gy, 10 mm field; all vehicle controls died in fewer than 10 days
Experimental: (§2) For survival studies, SBRT was given for 5 consecutive days 25 min after administration of vehicle or WR-2721 using the XRAD 225Cx small animal irradiator (Precision X-Ray; North Branford, Conn.) fitted with a conformal collimator to produce a circular 10 mm diameter radiation field. Mice were anesthetized with isoflurane gas for CT imaging and irradiation. Each mouse was imaged using the XRAD 225Cx cone beam CT prior to irradiation in order to align the radiation field so that the cranial edge of the field was located 5 mm below the diaphragm at the isocenter of the mouse. This field exposed the pancreas, duodenum, jejunum and liver to radiation. Radiation was administered anterior-posterior-posterio-anterior (AP-PA).
(§3) Mice were treated with WR-2721 or vehicle by intraperitoneal (IP) injection or oral gavage followed by SBRT and monitored on a daily basis. […] Time to euthanasia and percent survival were assessed.
It was hypothesized that the maximal benefit of radioprotection would likely occur between 12 and 13 Gy at 12.5 Gy×5 fractions (62.5 Gy; D2Eq=117.2 Gy). […] Remarkably, 100% of mice that received oral WR-2721 lived beyond 30 days, while all vehicle controls died in fewer than 10 days FIG. 3D, log rank p=0.0035).

[4] = tested on: duodenal and jejunal crypts; assay: Microcolony assay (Withers-Elkind), surviving crypts after 12 Gy whole body irradiation; assay type: in vivo, C3Hf/KamLaw mice; conditions: jejunum, oral, 30 min prior to 12 Gy WBI; no further benefit at 1000 mg/kg
Experimental: as §1
For the microcolony assay, a single dose of 12 Gy whole body irradiation (WBI) was administered 15 min or 30 min after WR-2721 treatment using a Pantak 300 x-ray unit (Pantak; East Haven, Conn.), with 300 kVp X-rays at a dose rate of 1.84 Gy/min. Un-anesthetized mice were loosely restrained in a well ventilated 15×15×2 cm Lucite box during WBI.
Viable jejunal crypts were quantified following a single dose of 12 Gy WBI+/− a single oral dose of WR-2721 given at 15 min or 30 min prior to radiation using the microcolony assay. Mice were euthanized 3 days and 14 hours after receiving WBI, and segments of jejunum and duodenum were resected and fixed in 10% neutral buffered formalin. Tissue was then embedded in paraffin, and four transverse slices of jejunum and duodenum were stained with hematoxylin and eosin per mouse. The number of regenerating crypts per transverse section was scored microscopically and averaged over the 4 sections per animal for each tissue type. All slides were scored by a single observer blinded to treatment group. […]

[5] = tested on: KPC mice with spontaneous pancreatic cancer; assay: Survival of tumor-bearing KPC mice after SBRT; assay type: in vivo, Kras LSL/+; Trp53 FL/+; Ptf1a Cre/+ (KPC) mice; conditions: SBRT 12.5 Gy x 5 + oral WR-2721 25 min prior to each fraction; VEH and SBRT+VEH 15 days
Experimental: as §2, §3
Further confirmation is illustrated in FIG. 6. KPC Mice were enrolled onto the study shortly after diagnosis and were treated to vehicle alone, SBRT with vehicle or SBRT with oral WR-2721. The SBRT field was 10 mm given AP/PA to the tumor and the dose was 12.5 Gy per day for 5 consecutive days for a total dose of 62.5 Gy (EQD2=117.2 Gy; α/β10=140.6). The tumors were identified by micro CT and ultrasound on a daily basis without fiducials. […]

[6] = given intravenously; cited from earlier work
[7] = LC/MS-MS analysis of WR-1065 plasma and tissue concentrations, C57BL/6 mice; conditions: WR-2721 500 mg/kg oral, 25 min
Experimental: Mice were treated with either 500 mg/kg of WR-2721 by oral gavage, or 250 mg/kg by IP injection. After 17 min had elapsed, the mice were anesthetized with isoflurane gas (3% isoflurane, oxygen flow rate of 2 L/min). After 8 min of anesthesia, whole blood and tissues were collected. The total amount of time between treatment and tissue collection was 25 min.
While under isoflurane anesthesia, the whole blood sample was collected via cardiac puncture and was immediately transferred to a BD Microtainer® blood collection tube containing K2-EDTA (Becton Dickinson; Franklin Lakes, N.J.). The K2-EDTA whole blood was then processed to plasma by centrifugation at 3,000 g for 4 min. After processing, a volume of the plasma supernatant (typically 200 μL) was removed and immediately transferred to a fresh 1.4 mL Matrix polypropylene (PP) tube (Thermo Fisher Scientific; Waltham, Mass.) containing a 50 μL aliquot of 10% trichloroacetic acid (TCA). After vortexing, the TCA-treated plasma samples were stored on ice for transport from the vivarium to the laboratory for further processing. The TCA-treated plasma samples were then centrifuged at 17,000 g for 5 min, and the supernatant was transferred to a fresh 1.4 mL Matrix tube, and the samples were either extracted and analyzed immediately or capped for −80° C. storage until analysis. […]

[8] = Methylene blue gut assay (GI transit time); assay type: in vivo, C57BL/6 mice
Experimental: In order to determine the rate at which oral solutions such as WR-2721 traverse the digestive tract of 8-week old C57BL/6 mice following oral gavage, a 1% (w/v) solution of methylene blue in PBS was gavaged in a total volume of 0.1 ml. Mice were then euthanized at 5, 10, 15, 25 and 30 min after the dye administration and the progress of the methylene blue stain through the intestines was examined. Mice were anesthetized with isoflurane 8 min prior to euthanasia following the same procedure used prior to irradiation (8 min at 3% isoflurane and oxygen flow rate of 2 L/min) to account for any potential changes it might have on GI transit time. Methylene blue dye progress was examined in situ for comparison with the location of our standard radiation field and then the intestine was excised so that distance traveled could be determined.

[9] = oral 500 mg/kg daily for 5 consecutive days

In the case of NCCCNCCSP(=O)(O)O [WR-2721, S-2-(3-aminopropylamino)ethyl dihydrogen phosphorothioate], the “day by which euthanasia was required” value ([1]; intraperitoneal 500 mg/kg daily) is reported as no more than 4 days, the “body weight and food consumption” value ([1]; intraperitoneal 500 mg/kg daily, 5 consecutive days planned) is reported as “dramatic decrease in food consumption and body weight” and the “body weight and food consumption” value [1, 9] is reported as “modest initial decrease in body weight and food consumption”. For the same compound, the “time to complete recovery of body weight after stopping treatment” value [1, 9] was no more than 2 days, the “WR-1065 concentration in duodenum” value ([2]; ip, 250 mg/kg) was 236.2±8.6 pmol WR-1065/mg tissue and the “WR-1065 concentration in jejunum” value ([2]; ip, 250 mg/kg) was 275.5±5.0 pmol WR-1065/mg tissue. The “WR-1065 concentration in liver” value ([2]; ip, 250 mg/kg) was 420±69.8 pmol WR-1065/mg tissue, the “WR-1065 concentration in pancreatic tumors” value ([2]; ip, 250 mg/kg) was 248±30.2 pmol WR-1065/mg tissue and the “WR-1065 concentration in duodenum” value ([2]; po, 500 mg/kg) was 200.6±23.3 pmol WR-1065/mg tissue. The “WR-1065 concentration in jejunum” value ([2]; po, 500 mg/kg) was 757.7±26.8 pmol WR-1065/mg tissue, the “WR-1065 concentration in liver” value ([2]; po, 500 mg/kg) was 59.9±26.8 pmol WR-1065/mg tissue and the “WR-1065 concentration in tumor” value ([2]; po, 500 mg/kg) was 24.5±1.9 pmol WR-1065/mg tissue. For the same compound, the “enrichment of the drug in the intestines compared to tumor” value ([2]; po, 500 mg/kg) was 10-40 fold, the “mice that lived beyond 30 days” value [3] was 100% and the “dose at which radiation protection was maximized” value [4] was 500 mg/kg. The median survival [5] was 40 days, the side effects [6] was “severe nausea and hypotension” and the “enhancement of WR-1065 within duodenum and jejunum compared to liver” value [7] was “six- to twelve-fold”.
With CN(C)c1ccc2nc3ccc(=[N+](C)C)cc-3sc2c1 [Methylene blue, methylene blue] the “time at which dye was in the jejunum” value ([8]; C57BL/6, mouse, in vivo, po) was 15 to 30 min, the “time to reach the duodenum” value ([8]; C57BL/6, mouse, in vivo, po) was no more than 10 min and the “dye front within 30 min” value ([8]; oral gavage, 1% (w/v) in PBS, 0.1 ml) was “had not reached the cecum or large intestine”.
